Molecular target: 72 kDa type IV collagenase (Homo sapiens) (UniProt P08253)
Assay: Inhibition of Matrix metalloprotease-2 at 50 uM

Sequence of 72 kDa type IV collagenase (Homo sapiens) (P08253 110-660 limits assumed): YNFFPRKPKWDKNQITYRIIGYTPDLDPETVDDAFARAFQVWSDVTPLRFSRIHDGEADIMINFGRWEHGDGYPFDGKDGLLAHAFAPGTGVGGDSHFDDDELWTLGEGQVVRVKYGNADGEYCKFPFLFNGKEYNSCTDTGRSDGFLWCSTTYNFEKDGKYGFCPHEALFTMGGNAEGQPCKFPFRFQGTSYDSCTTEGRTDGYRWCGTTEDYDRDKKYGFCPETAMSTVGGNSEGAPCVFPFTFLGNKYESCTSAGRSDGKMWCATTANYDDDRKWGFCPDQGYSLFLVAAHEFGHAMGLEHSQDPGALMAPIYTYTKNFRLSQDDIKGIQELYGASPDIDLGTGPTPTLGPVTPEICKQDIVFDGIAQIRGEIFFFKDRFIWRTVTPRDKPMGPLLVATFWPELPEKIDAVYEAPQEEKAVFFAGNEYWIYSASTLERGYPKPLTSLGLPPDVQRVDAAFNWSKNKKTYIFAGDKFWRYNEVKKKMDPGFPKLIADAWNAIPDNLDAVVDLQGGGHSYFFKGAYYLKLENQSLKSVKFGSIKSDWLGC

SMILES	inhibition
CC1(C)OB(C(CCCCl)P(=O)(O)O)OC1(C)C (configuration not stated)	55%
CC1(C)OB(C(Cc2ccccc2)P(=O)(O)O)OC1(C)C (configuration not stated)	40%
COP(=O)(CC1OC(C)(C)C(C)(C)O1)OC	0%
CC1(C)OB(CP(=O)(O)O)OC1(C)C	50%
O=P(O)(O)CB(O)O	0%
CC1(C)OB(/C=C/CP(=O)(O)O)OC1(C)C	75%
CCCCCC(B1OC(C)(C)C(C)(C)O1)P(=O)(O)O (configuration not stated)	50%

Source: ChEMBL document CHEMBL1135291, “Novel matrix metallo-proteinase (MMP-2) phosphonoboronate inhibitors” (Bioorg Med Chem Lett, 2002)
